The text below walks through data of EPA's ToxValDB 9.5 (doi:10.2903/j.efsa.2013.3298).

Each structure is given as a SMILES string. Converted amounts (≈) assume the structure as drawn.

By NOAEL is commonly meant the highest dose or exposure tested at which no adverse effect was seen.

One data set concerns Canidae. The following applies: oral, M/F, Dog Other, hematological.
For another data set, the system named is Colinus virginianus. The following applies: for LD50: acute, oral, mortality.
The subject of a further data set is Apis mellifera. The note with it: acute; duration: 48 hours; oral; unspecified; mortality.
A further data set relates to Cyprinodon variegatus. The note with it: acute; duration: 96 hours; mortality.
A further data set concerns Pimephales promelas. The following applies: chronic/long-term; duration: 35 days; body weight.
The subject of another data set is Daphnia magna. The note with it: chronic/long-term; duration: 21 days; reproduction.
The next data set relates to Aphidius rhopalosiphi. Put plainly: LR50; higher = less toxic. The note with it: acute; duration: 14 days; mortality.
For a further data set, the system named is Typhlodromus pyri. The data set is described as follows: LR50; higher = less toxic. The note with it: chronic/long-term; duration: 14 days; mortality.

Take `Cc1cc(C(F)(C(F)(F)F)C(F)(F)F)ccc1NC(=O)c1cccc(I)c1C(=O)NC(C)(C)CS(C)(=O)=O` [Flubendiamide]: the NOAEL in the data set on Canidae (chronic, duration: 1 years) is 2.21 mg/kg-day; in the data set with Canidae (subchronic, duration: 90 days) it was 2.6 mg/kg-day; in the data set with Rattus norvegicus (chronic, M, hematological), 1.7 mg/kg-day; in the data set with Rattus norvegicus (developmental, development), 10 mg/kg-day; in the data set on Rattus norvegicus (reproduction developmental, F, reproduction), 3.68 mg/kg-day. Besides, the LD50 in the data set with Colinus virginianus (diet) is greater than 1080 mg/kg-day; with Colinus virginianus, greater than 2000 mg/kg; with Apis mellifera, greater than 200 µg/piece; in the data set on Rattus norvegicus (acute, oral, M/F, mortality), greater than 2000 mg/kg; with Anas platyrhynchos (short-term, oral, feed, mortality), greater than 1020 mg/kg-day. Further, the NOEL turned out to be 10.2 mg/kg-day in the data set on Colinus virginianus (reproduction developmental, reproduction) and 26 mg/kg-day in the data set on Anas platyrhynchos (reproductive, reproduction). The LC50 in the data set with Cyprinodon variegatus was greater than 0.0298 µg/mL; in the data set on Bibionidae (acute, duration: 48 hours, mortality), 1.88 µg/mL (≈ 2.75 µM); in the data set with Tagia sp. (acute, duration: 14 days, mortality), greater than 1000 mg/kg. The NOEC in the data set on Bibionidae (chronic/long-term, duration: 28 days, development) amounted to 35 µg/L; in the data set on Tagia sp. (chronic/long-term, duration: 56 days, reproduction), 1000 mg/kg; in the data set on Pimephales promelas it was 60.2 µg/L; in the data set on Daphnia magna, 0.4 µg/L. Further, the LR50 with Aphidius rhopalosiphi and in the data set on Typhlodromus pyri was greater than 675 g/ha in each case.
